Among the data in ChEMBL document CHEMBL4665915, “Evaluation of a Series of Lipidated Tucaresol Adjuvants in a Hepatitis C Virus Vaccine Model” (2020) are Activity values, retold here.

Activity calls are given as the source filed them. No cut-off for these calls is given here.

The species entered for assay [1] is Mus musculus. Description: Immuno-adjuvant activity in E2deltaTM3-immunized BALB/cj mouse assessed as neutralization of HCV H77 genotype 1a pseudotyped virus particle with pooled immune sera at 1 ug/ml. The format is functional. The conditions noted are these: dose 1 µg/ml.
In assay [2] the test system is Mus musculus. The assay can be described thus: Immuno-adjuvant activity in E2deltaTM3-immunized BALB/cj mouse assessed as potentiation of antibody response to E1E2 by measuring increase in serum anti-E1E2 IgG level administered subcutaneously as prime injection at 200 ug and 800 ug compound split over the remaining four days to give final dose of 1 mg followed by booster injection at four week intervals on day 28, 56 and 84 and measured at […] post-booster injection on days 34, 62 and 90 by ELISA. The format is functional, organism-based.

With `CCCCCCCCCCCCCCCCOc1cccc(O)c1C=O`, the Activity in assay [1] came out at 59%. For the same compound, the result in assay [2] was Active.

On to `CCCCCCCCCCCCCCCCOc1ccc(O)c(O)c1C=O`, for which the Activity in assay [1] is on record as 71%. In addition, in assay [2], the outcome was Active. Turning to `O=Cc1c(O)cccc1OCc1ccc(C(=O)O)cc1` [TUCARESOL], in assay [1], the Activity amounted to 61%. Take `CCCCCCCCCCCCCCCCOc1cc(O)ccc1C=O`: the Activity in assay [1] is 78%. The result in assay [2] was Active.
